Patent US10376558B2, “Method and compositions for synchronizing time of insemination in gilts” (UNITED-AH II, LLC, priority 2012, dated 2019)

Columns and labels:
Type in all cases: in vivo, swine
[1] = test system: gilts; test: Example 1: estrus detection after triptorelin gel at 96, 120 or 144 h after last MATRIX feeding; conditions: raw average, PTK 1-07 (rep 3); 200 mcg T at 120 h after MATRIX withdrawal
Method: All gilts were individually fed MATRIX® as a top-dress for 14 days at the recommended rate of 15 mg/gilt/day. Gilts were withdrawn from MATRIX® feeding (last top feed in the morning on Day 0) and allotted to treatments. Controls were treated with a 1.2% methylcellulose gel formulation without triptorelin at 96 hours following MATRIX® withdrawal (last top-dress). The remaining gilts received 200 mcg triptorelin, as the acetate, in a 1.2% methylcellulose gel formulation intravaginally at various times after MATRIX® withdrawal. The four treatments were: 1) vehicle gel (VG) treatment at 96 hours after MATRIX® withdrawal, 2) triptorelin gel (TG) treatment at 96 hours after MATRIX® withdrawal, 3) TG treatment at 120 hours after MATRIX® withdrawal and 4) TG treatment at 144 hours after MATRIX® withdrawal. All gilts were monitored for their estrous and ovulatory status as described below. Gilts included in replicate 1 were selected from terminal line commercial production gilts located in grow/finish barns. Sexual maturity, as indicated by one or more estrous periods, was not verified prior to the start of MATRIX® feeding. Gilts included in replicate 2 were selected from a maternal line gilt population. Sexual maturity was verified by at least one estrous period verified and recorded prior to starting MATRIX® feeding. […]
Data were analyzed using the Mixed Models procedures of SAS. […]

[2] = test system: gilts; test: Example 5: estrus detection after 100, 200 or 400 mcg triptorelin gel; conditions: raw average, PTK 2-07
Method: (§1) All gilts were individually fed MATRIX® as a top-dress for 14 or 15 days at the recommended rate of 15 mg/gilt/day. Gilts were withdrawn from MATRIX® feeding (last top-dress in the morning on Day 0) and allocated to each of the following treatments. Controls were vehicle gel treated (vehicle gel without triptorelin) at 120 (+/−2) hours following MATRIX® withdrawal (last top dress). The other gilts were given 100, 200 or 400 mcg triptorelin as the acetate in a methylcellulose gel formulation 120 (+/−2) hours following MATRIX® withdrawal. The four treatments were:
For post-treatment estrus detection, gilts were housed in individual pens. Boars were housed in separate rooms, and/or at least 12 m away and downwind. To elicit signs of estrus, a mature boar was walked slowly in the alley in front of the gilts' crates, exposing each test gilt to visual, auditory and olfactory signals from the boar for up to 5 minutes. In keeping with standard practice at commercial farms, while the boar was near the front of the gilt's crate, estrus was tested by an experienced person applying back pressure to the midsection of the gilt combined with side rubbing. Estrus was confirmed when a gilt stood rigidly to the back pressure, with no vocalization and with some indication of an ear reflex. Gilts were not exposed to boars during the first three days after withdrawal of MATRIX® (Day 0 to Day 2). Estrus detection was performed daily on all gilts from Day 3 to Day 7.
(§2) A single 2 mL dose of triptorelin gel or vehicle gel was deposited within approximately 1-2 cm posterior to the cervix with a catheter similar to those used for artificial insemination. The dose was delivered using a standard multi-dose applicator attached to the catheter. A new disposable sheath, which surrounds the catheter, was used for each gilt.

[3] = test system: LH; test: Example 5: serum LH surge after triptorelin gel (jugular blood sampling); conditions: for Magnitude of LH surge: maximum serum LH concentration; for Onset of LH surge / Time of maximum LH conc.: relative to time of triptorelin gel treatment; for Time of maximum LH conc.: in h (unit assumed); for Gilts, which displayed a LH surge: number of gilts
Method: as §1
A catheter was inserted non-surgically into the jugular vein (Kraeling et al. 1982) of a subpopulation of gilts in each treatment group (vehicle gel, n=8; 100 mcg triptorelin, n=6; 200 mcg triptorelin, n=7 and 400 mcg triptorelin, n=6). Ten mL blood samples were collected every 15 minutes for one hour prior to treatment, immediately following treatment (0) and at 0.5, 1, 2, 4, 6, 12, 18, 24, 36 and 48 hours after treatment. Blood samples were maintained at 4° C. until centrifuged at 800×g for 15 minutes within 12 hours of collection. The resulting serum was stored frozen until assayed for LH using validated procedures for pig serum (Kesner et al., 1987 and Kraeling et al., 1982). Onset, duration, and magnitude of the LH surge were analyzed. The LH data were analyzed with the General Linear Models procedure of SAS. Differences between treatments were tested on least squares means estimates using the T test at P<0.05. Onset of the LH surge is when serum LH concentration is greater than or equal to two standard deviations of the mean of the pre-treatment serum LH concentrations. Duration of the LH surge is the period between onset and when serum LH concentration is again less than or equal to two standard deviations of the mean of the pre-treatment serum LH concentrations. Magnitude of the LH surge is the maximum serum LH concentration reached during the LH surge.
as §2

[4] = test system: gilts; test: Example 5: ovulation monitoring by transrectal ultrasonography after 100, 200 or 400 mcg triptorelin gel at 120 h post-MATRIX; conditions: 400 mcg T (n = 6 catheterized gilts)
[5] = 100 mcg T at 120 h after MATRIX withdrawal
[6] = 200 mcg T at 120 h after MATRIX withdrawal
[7] = 400 mcg T at 120 h after MATRIX withdrawal
[8] = 100 mcg T (n = 6), Least Squares Mean ± SE
[9] = 200 mcg T (n = 7), Least Squares Mean
[10] = 400 mcg T (n = 6), Least Squares Mean ± SE

Compound: CC(C)C[C@H](NC(=O)[C@@H](Cc1c[nH]c2ccccc12)NC(=O)[C@H](Cc1ccc(O)cc1)NC(=O)[C@H](CO)NC(=O)[C@H](Cc1c[nH]c2ccccc12)NC(=O)[C@H](Cc1c[nH]cn1)NC(=O)[C@@H]1CCC(=O)N1)C(=O)N[C@@H](CCCNC(=N)N)C(=O)N1CCC[C@H]1C(=O)NCC(N)=O [T, pGlu-His-Trp-Ser-Tyr-D-Trp-Leu-Arg-Pro-Gly-NH2]
- Estrous Expression (%) [1]: 100.0%
- Interval from MATRIX withdrawal to Estrus [1]: 129.6 h
- Estrous Expression (%) [2, 5]: 75.0%
- Interval from MATRIX withdrawal to Estrus [2, 5]: 134.4 h
- Estrous Expression (%) [2, 6]: 81.0%
- Interval from MATRIX withdrawal to Estrus [2, 6]: 136.9 h
- Estrous Expression (%) [2, 7]: 86.4%
- Interval from MATRIX withdrawal to Estrus [2, 7]: 133.9 h
- Duration of LH surge [3, 8]: 19 ± 2
- Magnitude of LH surge [3, 8]: 3.94 ± 1.22
- Onset of LH surge [3, 8]: 4 ± 3
- Time of maximum LH conc. [3, 8]: 11 ± 7
- Gilts, which displayed a LH surge ([3]; 100 mcg T in gel at 120 h post-MATRIX (n = 6 catheterized gilts)): 4
- Duration of LH surge [3, 9]: 18
- Magnitude of LH surge [3, 9]: 8.98
- Onset of LH surge [3, 9]: 0.5
- Time of maximum LH conc. [3, 9]: 4
- Gilts, which displayed a LH surge ([3]; 200 mcg T in gel at 120 h post-MATRIX (n = 7 catheterized gilts)): 1
- Duration of LH surge [3, 10]: 17 ± 4
- Magnitude of LH surge [3, 10]: 11.65 ± 12.35
- Onset of LH surge [3, 10]: 4 ± 4
- Time of maximum LH conc. [3, 10]: 12 ± 4
- Gilts, which displayed a LH surge ([3]; 400 mcg T in gel at 120 h post-MATRIX (n = 6 catheterized gilts)): 5
- Percentage ovulated by 48 hours ([4]; after treatment): 100%
- Time at which ovulation detected ([4]; relative to time of triptorelin gel treatment, Least Squares Mean ± SE): 40 ± 8 h
